According to patent EP1285919A1, “C10 Carbonate substituted taxanes as antitumor agents” (Florida State University Research Foundation, Inc., priority 2001, dated 2003):
Like-named read-outs stand apart in the source and are kept apart here.

What was measured:
HCT116 = experiment: In vitro cytotoxicity, cell colony formation assay; assay type: cell-based; conditions: read-out: IN VITRO ID 50
Description: In Vitro cytotoxicity measured by the cell colony formation assay
Four hundred cells (HCT116) were plated in 60 mm Petri dishes containing 2.7 mL of medium (modified McCoy's 5a medium containing 10% fetal bovine serum and 100 units/mL penicillin and […] streptomycin). The cells were incubated in a CO2 incubator at 37 °C for 5 h for attachment to the bottom of Petri dishes. The compounds identified in Example 2 were made up fresh in medium at ten times the final concentration, and then 0.3 mL of this stock solution was added to the 2.7 mL of medium in the dish. The cells were then incubated with drugs for 72 h at 37 ° C. At the end of incubation the drug-containing media were decanted, the dishes were rinsed with 4 mL of Hank's Balance Salt Solution (HBSS), 5 mL of fresh medium was added, and the dishes were returned to the incubator for colony formation. The cell colonies were counted using a colony counter after incubation for 7 days.

[1] = test system: Panc-1 Human Pancreatic Carcinoma; experiment: In vivo evaluation against Panc-1 pancreatic carcinoma xenografts; conditions: for MDS (n): 1.5 g endpoint
Description: In Vivo Evaluation of Antitumor Compounds Against Panc-1 Human Pancreatic Carcinoma
(§1) Antitumor compounds were prepared in a vehicle of 5% ethanol, 5% Cremophor and 90% isotonic saline in the manner as described for Solution 1 of Example 10. Taxol (paclitaxel; Bristol Meyers Squibb) was obtained as the marketed pharmaceutical drug. The dosing volume was 0.3 ml per 20 g mouse.
Female NCr-nude mice were implanted subcutaneously with 1 mm^3 Panc-1 pancreatic carcinoma fragments in the flank and sorted into treatment groups of six mice each. […] Dosing was initiated on Day 1. The antitumor compounds were given i.v. at an estimated maximum tolerated dose (MTD) appropriate for each agent on a qd x 1 schedule (single administration of compound). The i.v. taxol was given on the qd x 1 schedule as two split doses (one hour between) of 12 mg/kg per split dose (total dose = 24 mg/kg). Taxol was also administered at a dose of 15 mg/kg i.p. on a qd x 5 schedule. The vehicle was administered i.v. to control mice in Group 1 on the qd x 1 schedule. The study was terminated on Day 63. Treatment groups are detailed in Table 9.
The results are summarized in Table 10 and include mean days of survival (MDS), number of toxic deaths, number of survivors, number of complete or partial responses, and number with stable disease. The mean days of survival is the number of days after which a neoplasm reached a size of 1.5 g and the animal was euthanized. A complete response is obtained […]. […]

[2] = test system: DU 145 Human Prostrate Carcinoma Xenografts; experiment: In vivo evaluation against DU145 prostate carcinoma xenografts
Description: In Vivo Evaluation of Antitumor Compounds Against DU 145 Human Prostrate Carcinoma Xenografts
as §1
Male NCr-nude mice were implanted subcutaneously with 1 mm^3 DU145 prostate carcinoma fragments in the flank and sorted into treatment groups of five mice each. […] Dosing was initiated on Day 1. The antitumor compounds were given i.v. at an estimated maximum tolerated dose (MTD) appropriate for each agent on a qd x 1 schedule (single administration of compound). The i.v. Taxol was given on the qd x 1 schedule as two split doses (one hour between) of 12 mg/kg per split dose (total dose = 24 mg/kg). Taxol was also administered intraperitoneally (i.p.) on a qd x 5 schedule at a daily dose of 18 mg/kg. The vehicle was administered i.v. to control mice in Group 1 on the qd x 1 schedule. The study was terminated on Day 91. Treatment groups are detailed in Table 3.
The mean days of survival is the number of days after which a neoplasm reached a size of 1.5 g and the animal was euthanized. A complete response is obtained […]. […]

[3] = test system: A2780 Human Ovarian Carcinoma Xenografts; experiment: In vivo evaluation against A2780 ovarian carcinoma xenografts; set-up: species or system NCr-nude mice; Mean Score: scale not given here; conditions: for MDS (n): 2.0 g endpoint
Description: In Vivo Evaluation of Antitumor Compounds Against A2780 Human Ovarian Carcinoma Xenografts
The A2780 group mean size range was 237-243 mg. Dosing was initiated on Day 1. […] Treatment groups are detailed in Table 5.

[4] = 1781 i.v. qd x 1 at estimated MTD
[5] = Group 4: 60 mg/kg i.v. qd x 1, 6 mice, study to Day 63
[6] = Group 4: i.v. qd x 1 at estimated MTD, 5 mice, study to Day 91
[7] = Group 4: 60.6 mg/kg i.v. qd x 1, 5 mice, study to Day 60
[8] = Group 2: 24 mg/kg i.v. qd x 1 (two split doses of 12 mg/kg), 6 mice, study to Day 63
[9] = Group 3: 15 mg/kg i.p. qd x 5, 6 mice, study to Day 63
[10] = Group 2: 24 mg/kg i.v. qd x 1 (two split doses of 12 mg/kg), 5 mice, study to Day 91
[11] = Group 3: 18 mg/kg i.p. qd x 5, 5 mice, study to Day 91
[12] = Group 2: 24 mg/kg i.v. qd x 1 (two split doses of 12 mg/kg), 5 mice, study to Day 60
[13] = Group 3: 15 mg/kg i.p. qd x 5, 5 mice, study to Day 60

SMILES: CCOC(=O)O[C@H]1C(=O)[C@@]2(C)[C@H]([C@H](OC(=O)c3ccccc3)[C@]3(O)C[C@H](OC(=O)[C@H](O)[C@H](C=C(C)C)NC(=O)OC(C)(C)C)C(C)=C1C3(C)C)[C@]1(OC(C)=O)CO[C@@H]1C[C@@H]2O [Compound 1781]
- IC50 (HCT116; HCT116, 72 h with drug, colonies counted after 7 days, concentration producing 50% inhibition of colony formation): < 1 nM
- overall response rate [1, 4]: 66.7%
- MDS (n) ([1]; Group 4: 60 mg/kg i.v. qd x 1, 6 mice, n=2, study to Day 63): 59.3 ± 2.9(2) days
- Complete Response [1, 5]: 0
- Mean Score [1, 5]: 6.7 ± 1.2
- Partial Response [1, 5]: 4
- Stable Disease [1, 5]: 0
- Survivors [1, 5]: 4
- Toxic Deaths [1, 5]: 0
- Toxic Deaths ([1]; i.v. qd x 1, Taxol 24 mg/kg, 1781 at estimated MTD, six mice per group): no toxic deaths
- mean group weight loss ([1]; mouse, in vivo, iv): minimal
- tolerability ([1]; mouse, in vivo, iv): well-tolerated
- weight loss ([2]; 1781 72.6 mg/kg i.v. qd x 1, in a number of treated mice prior to death): over 20%
- Complete Response [2, 6]: 0
- Mean Score [2, 6]: 0 ± 0
- Partial Response [2, 6]: 0
- Stable Disease [2, 6]: 0
- Survivors [2, 6]: 0
- Toxic Deaths [2, 6]: 5
- total response rate [3, 4]: at least 20%
- partial responses ([3]; 1781 i.v. qd x 1 at estimated MTD, five mice treated): 2
- MDS (n) ([3]; Group 4: 60.6 mg/kg i.v. qd x 1, 5 mice, n=2, study to Day 60): 38.5 ± 8.3 (2) days
- Complete Response [3, 7]: 0
- Mean Score [3, 7]: 6 ± 1.3
- Partial Response [3, 7]: 2
- Stable Disease [3, 7]: 1
- Survivors [3, 7]: 3
- Toxic Deaths [3, 7]: 0

SMILES: CC(=O)O[C@H]1C(=O)[C@@]2(C)[C@H]([C@H](OC(=O)c3ccccc3)[C@]3(O)C[C@H](OC(=O)[C@H](O)[C@@H](NC(=O)c4ccccc4)c4ccccc4)C(C)=C1C3(C)C)[C@]1(OC(C)=O)CO[C@@H]1C[C@@H]2O [Taxol]
- IC50 (HCT116; Homo sapiens, HCT-116): 2.1 nM
- MDS (n) ([1]; Group 2: 24 mg/kg i.v. qd x 1 (two split doses of 12 mg/kg), 6 mice, n=4, study to Day 63): 34.7 ± 3.4(4) days
- Complete Response [1, 8]: 0
- Mean Score [1, 8]: 2.2 ± 0.8
- Partial Response [1, 8]: 0
- Stable Disease [1, 8]: 1
- Survivors [1, 8]: 1
- Complete Response [1, 9]: 0
- Mean Score [1, 9]: 1.2 ± 1.2
- Partial Response [1, 9]: 1
- Stable Disease [1, 9]: 0
- Survivors [1, 9]: 1
- MDS ([1]; Taxol 24 mg/kg i.v. qd x 1, four mice, 1.5 g cut-off): 34.7 days
- Toxic Deaths ([1]; female, NCr-nude, mouse, in vivo): 1
- Toxic Deaths ([1]; female, NCr-nude, mouse, in vivo, ip, 15 mg/kg): 4
- Stable Disease ([1]; number of cases, Taxol 24 mg/kg i.v. qd x 1, six mice): one
- MDS (n) ([2]; Group 2: 24 mg/kg i.v. qd x 1 (two split doses of 12 mg/kg), 5 mice, n=3, 1.5 g endpoint, study to Day 91): 37.4 ± 8.9 (3) days
- Complete Response [2, 10]: 0
- Mean Score [2, 10]: 2 ± 1
- Partial Response [2, 10]: 0
- Stable Disease [2, 10]: 1
- Survivors [2, 10]: 1
- Toxic Deaths [2, 10]: 1
- Complete Response [2, 11]: 0
- Mean Score [2, 11]: 0 ± 0
- Partial Response [2, 11]: 0
- Stable Disease [2, 11]: 0
- Survivors [2, 11]: 0
- Toxic Deaths [2, 11]: 5
- weight loss ([2]; Taxol 18 mg/kg i.p. qd x 5): more than 20%
- mice died of drug-related side effects ([2]; Taxol 18 mg/kg i.p. qd x 5, five mice): five
- increase in survival compared to Group 1 controls ([2]; Taxol 24 mg/kg i.v. qd x 1): 9%
- MDS ([2]; Taxol 24 mg/kg i.v. qd x 1, 1.5 g endpoint, three of five animals): 37.4 days
- MDS (n) ([3]; Group 2: 24 mg/kg i.v. qd x 1 (two split doses of 12 mg/kg), 5 mice, n=5, study to Day 60): 21.9 ± 5.5 (5) days
- Complete Response [3, 12]: 0
- Mean Score [3, 12]: 1.8 ± 0.4
- Partial Response [3, 12]: 0
- Stable Disease [3, 12]: 0
- Survivors [3, 12]: 1
- Toxic Deaths [3, 12]: 0
- Complete Response [3, 13]: 0
- Mean Score [3, 13]: 0.6 ± 0.6
- Partial Response [3, 13]: 0
- Stable Disease [3, 13]: 0
- Survivors [3, 13]: 0
- Toxic Deaths [3, 13]: 4
- mice succumbed to drug-related side effects ([3]; Taxol 15 mg/kg i.p. qd x 5, five mice): four
- increase in survival / survival extension compared to Group 1 controls ([3]; i.v. qd x 1, Taxol 24 mg/kg, Taxotere 70 mg/kg): 87%
- MDS ([3]; i.v. qd x 1, Taxol 24 mg/kg, Taxotere 70 mg/kg, 2.0 g cut-off): 21.9 days
- Stable Disease ([3]; number of animals, Taxol 24 mg/kg i.v. qd x 1, Day 61): One
